Experimental data taken from ChEMBL document CHEMBL1201862, “PubChem BioAssay data set” (2004).
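Assay format: 96-well plates, 48-hour exposure. Here, GI50 denotes the concentration required for 50% inhibition of growth.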 Calls of active or inactive are those of the source. Cut-off read from the data, not from the text of the source: active = GI50 up to about 1.1 µM and inactive = higher.

Tests used:
Assay in all cases: NCI-60 cell line screen, 48 h
HCT-116 = system: HCT-116
T47D = system: T47D
SW-620 = system: SW-620
CAKI-1 = system: CAKI-1
OVCAR-8 = system: OVCAR-8
NCI-H460 = system: NCI-H460
SF-268 = system: SF-268
SF-539 = system: SF-539
NCI-H226 = system: NCI-H226
IGROV-1 = system: IGROV-1
786-0 = system: 786-0
MDA-MB-435 = system: MDA-MB-435
PC-3 = system: PC-3
TK-10 = system: TK-10
Hs-578T = system: Hs-578T
SK-MEL-2 = system: SK-MEL-2
RXF 393 = system: RXF 393
HCT-15 = system: HCT-15
Malme-3M = system: Malme-3M
BT-549 = system: BT-549

SMILES | GI50 (HCT-116) | GI50 (T47D) | GI50 (SW-620) | GI50 (CAKI-1) | GI50 (OVCAR-8) | GI50 (NCI-H460) | GI50 (SF-268) | GI50 (SF-539) | GI50 (NCI-H226) | GI50 (IGROV-1) | GI50 (786-0) | GI50 (MDA-MB-435) | GI50 (PC-3) | GI50 (TK-10) | GI50 (Hs-578T) | GI50 (SK-MEL-2) | GI50 (RXF 393) | GI50 (HCT-15) | GI50 (Malme-3M) | GI50 (BT-549)
CCOC(=O)c1ccc(N(C)Cc2cnc3nc(N)nc(N)c3n2)cc1 | 3.66 µM (inactive) | 26.9 µM (inactive) | 6.3 µM (inactive) | 14.4 µM (inactive) | 7.64 µM (inactive) | 9.79 µM (inactive) | 9.51 µM (inactive) | 8.13 µM (inactive) | 20.1 µM (inactive) | 5.71 µM (inactive) | 7.45 µM (inactive) | 8.83 µM (inactive) | 5.02 µM (inactive) | 13.8 µM (inactive) | 12.7 µM (inactive) | 21.4 µM (inactive) | 5.97 µM (inactive) | 4.85 µM | 16.6 µM (inactive) | 17.3 µM (inactive)
C=C1CC[C@@]2(C)[C@@H]([C@@H]1C)[C@H]1CC[C@@H]3[C@@]4(C)CC[C@H](O)C(C)(C)[C@@H]4CC[C@@]3(C)[C@]1(C)C[C@@H]2O | 2.99 µM (inactive) | 2.55 µM (inactive) | 4.03 µM (inactive) | 2.42 µM (inactive) | 1.85 µM (inactive) | 2.11 µM (inactive) | 2.28 µM (inactive) | 2.45 µM (inactive) | 5 µM (inactive) | 2 µM (inactive) | 2.7 µM (inactive) | 4.22 µM (inactive) | 2.86 µM (inactive) | 5.62 µM (inactive) | 2.69 µM (inactive) | 3.67 µM (inactive) | 1.77 µM (inactive) | 3.24 µM | 3.25 µM (inactive) | 10 µM (inactive)
COc1c2occc2c(OC)c2c(=O)c(S(=O)(=O)NC(=O)Nc3ccc(Cl)cc3)coc12 | > 10 µM (inactive) | > 10 µM (inactive) | > 10 µM (inactive) | > 10 µM (inactive) | > 10 µM (inactive) | > 10 µM (inactive) | > 10 µM (inactive) | > 10 µM (inactive) | > 10 µM (inactive) | > 10 µM (inactive) | > 10 µM (inactive) | > 10 µM (inactive) | > 10 µM (inactive) | > 10 µM (inactive) | > 10 µM (inactive) | > 10 µM (inactive) | > 10 µM (inactive) | > 10 µM | > 10 µM (inactive) | > 10 µM (inactive)
CCOC(=O)/C=C(/C(=O)OCC)n1c(=O)c(C)cn(C2CC(N=[N+]=[N-])C(CO)O2)c1=O (stereo not drawn) | 37.2 µM (inactive) | 27.2 µM (inactive) | 17 µM (inactive) | 31.6 µM (inactive) | 28.9 µM (inactive) | 47.4 µM (inactive) | 44.8 µM (inactive) | 22.1 µM (inactive) | 45.4 µM (inactive) | 37.3 µM (inactive) | 25.4 µM (inactive) | 29.6 µM (inactive) | 13.5 µM (inactive) | 37.2 µM (inactive) | 51.2 µM (inactive) | 19.5 µM (inactive) | 24.2 µM (inactive) | 29.7 µM | 54.3 µM (inactive) | 48.6 µM (inactive)
C[C@H](CCC(=O)O[C@@H]1CC[C@@]2(C)C(CC[C@H]3[C@@H]4CC[C@H]([C@H](C)CCc5nc6ccccc6[nH]5)[C@@]4(C)CC[C@@H]32)C1)[C@H]1CC[C@H]2[C@@H]3CCC4C[C@H](O)CC[C@]4(C)[C@H]3CC[C@]12C (stereo partly drawn) | > 100 µM (inactive) | 5.04 µM (inactive) | > 100 µM (inactive) | > 31.3 µM (inactive) | 20.2 µM (inactive) | 0.518 µM (active) | 5.38 µM (inactive) | > 100 µM (inactive) | > 100 µM (inactive) | 1.33 µM (inactive) | 11.5 µM (inactive) | > 100 µM (inactive) | > 100 µM (inactive) | > 100 µM (inactive) | 0.494 µM (active) | > 100 µM (inactive) | > 100 µM (inactive) | > 80.2 µM | – | > 100 µM (inactive)
O=C(O)/C(=C\c1ccccc1)Cc1ccccc1 | > 100 µM (inactive) | > 100 µM (inactive) | > 100 µM (inactive) | > 100 µM (inactive) | > 100 µM (inactive) | > 100 µM (inactive) | > 100 µM (inactive) | 83 µM (inactive) | > 100 µM (inactive) | > 100 µM (inactive) | > 100 µM (inactive) | > 100 µM (inactive) | > 100 µM (inactive) | > 100 µM (inactive) | > 100 µM (inactive) | > 100 µM (inactive) | > 100 µM (inactive) | > 100 µM | > 100 µM (inactive) | > 100 µM (inactive)
O=C(O)/C=C\C(=O)Nn1c(Cc2ccc(Cl)cc2)n[nH]c1=O | > 100 µM (inactive) | > 100 µM (inactive) | – | > 100 µM (inactive) | > 100 µM (inactive) | > 100 µM (inactive) | > 100 µM (inactive) | > 100 µM (inactive) | > 100 µM (inactive) | > 100 µM (inactive) | > 100 µM (inactive) | > 100 µM (inactive) | > 100 µM (inactive) | > 100 µM (inactive) | > 100 µM (inactive) | > 100 µM (inactive) | > 100 µM (inactive) | > 100 µM | > 100 µM (inactive) | > 100 µM (inactive)
